Results from PMC10925693, “The Mla system and its role in maintaining outer membrane barrier function in Stenotrophomonas maltophilia” (Frontiers in Cellular and Infection Microbiology, 2024).

Molecular target: MlaC (Smlt4673) (Stenotrophomonas maltophilia, UniProt B2FP85)
Assay: MicroScale Thermophoresis (MST), supported by nanoDSF Tm shift
Type: binding

Chain of MlaC (Smlt4673) (B2FP85 entry or part of it): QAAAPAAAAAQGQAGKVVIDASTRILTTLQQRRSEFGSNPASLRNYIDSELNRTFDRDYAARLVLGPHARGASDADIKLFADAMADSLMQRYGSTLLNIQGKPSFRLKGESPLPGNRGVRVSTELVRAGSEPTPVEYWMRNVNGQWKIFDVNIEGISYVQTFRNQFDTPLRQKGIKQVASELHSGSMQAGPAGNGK

With CCCCCCCCCCCCCC(=O)OC[C@H](COP(=O)(O)OCCN)OC(=O)CCCCCCCCCCCCC [PE14/14, PE C14:0/C14:0] the Kd was 795 µM.
